Laboratory results taken from patent publication US8859653B2, “Rubber-steel cord composite” (Bridgestone Corporation, priority 2009, dated 2014).

Experiment: octanol/water partition coefficient (log P) by high performance liquid chromatography according to JIS Z 7260-117 (2006)
Type: physicochemical
Description: The combination which is the best mode described above can be confirmed from a numerical value of an octanol/water partition coefficient (log Pow, hereinafter abbreviated as “log P”) which is one of simple measures for evaluating a condensation property of chemicals. In the present invention, the smaller the value of log P is, the better the balance between the vulcanization speed, securing of the adhesion performance and the accumulativeness in human bodies is.
In the present invention (including examples and the like described later), the octanol/water partition coefficient (log P) described above can be measured by a high performance liquid chromatography according to JIS Z 7260-117 (2006), and it is defined by the following equation: log P=log(┌Co┘/┌Cw┘)
Co: concentration of a test substance in a 1-octanol layer
Cw: concentration of a test substance in an aqueous layer
Also, the octanol/water partition coefficients (log P) of the respective vulcanization accelerators obtained (production examples 1 to 6) were measured by a high performance liquid chromatography according to JIS Z 7260-117 (2006). A high performance liquid chromatography manufactured by Shimadzu Corporation was used.

Row | SMILES | octanol/water partition coefficient (log P)
1 | CCN(Sc1nc2ccccc2s1)C(C)(C)C [N-ethyl-N-t-butylbenzothiazole-2-sulpheneamide] | 4.9
2 | CC(C)N(Sc1nc2ccccc2s1)C(C)(C)C [N-i-propyl-N-t-butylbenzothiazole-2-sulpheneamide] | 5.1
3 | CN(Sc1nc2ccccc2s1)C(C)(C)C [N-methyl-N-t-butylbenzothiazole-2-sulpheneamide] | 4.5
4 | CCCCN(Sc1nc2ccccc2s1)C(C)(C)C [N-n-butyl-N-t-butylbenzothiazole-2-sulpheneamide] | 5.8
5 | CCCN(Sc1nc2ccccc2s1)C(C)(C)C [N-n-propyl-N-t-butylbenzothiazole-2-sulpheneamide] | 5.3
